Patent US20100028892A1, “YEAST BASED EXPRESSION OF PROTEASES AND METHODS OF USE” (Burnham Institute for Medical Research, priority 2008, published 2010)

Assays:
Format in all cases: cell-based
Caspase1 = biological target: T1, Caspase1 (Homo sapiens, UniProt P29466); experiment: yeast 384 well β-galactosidase reporter assay, Caspase1 expressed alone; conditions: Caspase1 in yeast, 384 well β-galactosidase activity assay
T1 construct: each full-length Caspase construct was expressed (for Caspases-1, 2, 3, 4, 5, 6, 7, and 9) at high levels; FLAG (C); HA (N); expressed in transfected cells; host or cells: Saccharomyces cerevisiae (EGY48)
T1 sequence (P29466 1-404): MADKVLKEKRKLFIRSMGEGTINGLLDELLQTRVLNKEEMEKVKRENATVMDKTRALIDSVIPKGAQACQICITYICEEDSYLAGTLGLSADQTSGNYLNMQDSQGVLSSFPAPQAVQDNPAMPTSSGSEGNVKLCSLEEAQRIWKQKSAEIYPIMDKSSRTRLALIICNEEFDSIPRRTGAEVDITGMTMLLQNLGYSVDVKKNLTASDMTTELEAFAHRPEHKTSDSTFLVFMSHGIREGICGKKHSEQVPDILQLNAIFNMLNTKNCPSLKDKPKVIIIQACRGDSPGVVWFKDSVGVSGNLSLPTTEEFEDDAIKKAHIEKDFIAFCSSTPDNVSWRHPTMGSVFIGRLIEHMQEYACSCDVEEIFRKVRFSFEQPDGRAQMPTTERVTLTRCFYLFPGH
Text: (§1) When converting the yeast-based protease reporter system to HTS assay, conditions from agar plates to liquid medium in microtiter wells must be revised. This revision comprises, utilizing the measured β-galactosidase produced by yeast carrying the Caspase-cleavable reporter proteins, and assaying the colorimetric product (OD620nm) derived from X-gal substrate in 384 well plates, as a measure of the lacZ reporter gene activity. We compared β-galactosidase activity produced in the presence or absence of the broad-spectrum caspase inhibitory compound, zVAD-fmk ([…]-Valinyl-Alaninyl-Aspartyl-fluoromethylketone). […] Note that it was determined that it is not advisible to employ glucose in yeast media because it represses the GAL1 promoter used in some plasmids. […]
(§2) Yeast expressing various Caspases alone (at high levels) or in combination with upstream activators (at low levels) and cleavable substrates containing appropriate tetrapeptides reorganized by these proteases were used in 384 well β-galactosidase activity assays to assess inhibition by zVAD-fmk. The compound was titrated into assays at various concentrations and percentage inhibition was determined.
(§3) Assays were performed in a total volume of […] in triplicate. […] Absorbance at 620 nm was measured 2-3 days after culture at 30° C.

Caspase6 = biological target: T2, Caspase6 (Homo sapiens, UniProt P55212); experiment: yeast 384 well β-galactosidase reporter assay, Caspase6; conditions: Caspase6 in yeast, 384 well β-galactosidase activity assay
T2 construct: each full-length Caspase construct was expressed (for Caspases-1, 2, 3, 4, 5, 6, 7, and 9) at high levels; HA (N); expressed in transfected cells; host or cells: Saccharomyces cerevisiae (EGY48)
T2 sequence (P55212 1-293): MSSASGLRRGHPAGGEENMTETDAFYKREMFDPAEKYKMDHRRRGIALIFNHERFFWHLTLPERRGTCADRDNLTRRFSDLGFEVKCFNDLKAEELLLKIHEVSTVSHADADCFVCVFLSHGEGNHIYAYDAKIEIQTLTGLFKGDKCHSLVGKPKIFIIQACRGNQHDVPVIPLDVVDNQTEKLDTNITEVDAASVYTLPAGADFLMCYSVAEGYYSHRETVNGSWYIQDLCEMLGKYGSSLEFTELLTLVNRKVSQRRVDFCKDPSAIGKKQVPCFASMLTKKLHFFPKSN
Text: as §1, §2, §3

[1] = biological target: T3, Caspase8 activated with FADD + Fas (Homo sapiens, UniProt Q14790); experiment: yeast 384 well β-galactosidase reporter assay, Caspase8 activated with FADD + Fas; conditions: Caspase8 activated with FADD + Fas in yeast, 384 well β-galactosidase activity assay
T3 construct: a small amount of each full-length Caspase construct was expressed with a large amount of adaptor protein FADD; HA (C); expressed in transfected cells; host or cells: Saccharomyces cerevisiae EGY48
Text: as §1, §2, §3

[2] = biological target: T4, Caspase1 activated with Asc (Homo sapiens, UniProt P29466); experiment: yeast 384 well β-galactosidase reporter assay, Caspase1 activated with Asc; conditions: Caspase1 activated with Asc in yeast, 384 well β-galactosidase activity assay
T4 construct: Caspase (all full-length zymogen proforms) expression plasmids; FLAG (C); expressed in transfected cells; host or cells: Saccharomyces cerevisiae (EGY191 or EGY48)
T4 sequence (P29466 120-297 limits assumed): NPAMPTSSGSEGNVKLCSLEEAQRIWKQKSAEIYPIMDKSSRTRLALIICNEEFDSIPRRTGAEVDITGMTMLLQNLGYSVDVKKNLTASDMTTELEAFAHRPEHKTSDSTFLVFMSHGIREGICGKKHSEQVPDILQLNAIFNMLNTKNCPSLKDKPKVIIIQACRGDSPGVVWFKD
T4 sequence (P29466 317-404 limits assumed): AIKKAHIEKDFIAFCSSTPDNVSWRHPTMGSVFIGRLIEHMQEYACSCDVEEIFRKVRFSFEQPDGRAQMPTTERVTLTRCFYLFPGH
Text: as §1, §2, §3

[3] = biological target: T5, Caspase9 activated with Apaf* (Homo sapiens, UniProt P55211); experiment: yeast 384 well β-galactosidase reporter assay, Caspase9 activated with Apaf*; conditions: Caspase9 activated with Apaf* in yeast, 384 well β-galactosidase activity assay
T5 construct: Caspase (all full-length zymogen proforms) expression plasmids; HA (N); expressed in transfected cells; host or cells: Saccharomyces cerevisiae EGY48
T5 sequence (P55211 1-416): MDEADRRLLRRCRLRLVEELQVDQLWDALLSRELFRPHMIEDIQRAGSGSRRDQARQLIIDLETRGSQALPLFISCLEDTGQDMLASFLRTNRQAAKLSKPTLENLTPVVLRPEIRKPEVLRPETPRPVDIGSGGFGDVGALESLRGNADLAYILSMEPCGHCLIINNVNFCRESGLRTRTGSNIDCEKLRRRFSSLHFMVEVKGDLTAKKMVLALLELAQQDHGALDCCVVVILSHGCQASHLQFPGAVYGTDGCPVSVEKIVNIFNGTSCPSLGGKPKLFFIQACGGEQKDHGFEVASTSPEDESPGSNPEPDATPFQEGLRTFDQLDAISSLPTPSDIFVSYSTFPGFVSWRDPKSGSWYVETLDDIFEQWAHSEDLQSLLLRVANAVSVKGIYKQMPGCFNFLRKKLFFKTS
Text: as §1, §2, §3

T3 sequence (Q14790 217-374 limits assumed): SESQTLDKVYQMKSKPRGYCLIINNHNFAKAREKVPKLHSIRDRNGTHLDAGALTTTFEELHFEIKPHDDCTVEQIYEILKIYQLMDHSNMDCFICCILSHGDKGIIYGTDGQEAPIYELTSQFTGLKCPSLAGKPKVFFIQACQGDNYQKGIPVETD
T3 sequence (Q14790 385-479 limits assumed): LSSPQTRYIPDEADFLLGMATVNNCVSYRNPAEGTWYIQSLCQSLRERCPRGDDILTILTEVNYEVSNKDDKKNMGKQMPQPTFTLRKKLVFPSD

Question: For “benzoyl-Valinyl-Alaninyl-Aspartyl-fluoromethylketone [zVAD-fmk]”, which IC50 (Caspase1) is on record?
Answer: The IC50 was 3.07 µM.

Question: What about the IC50 (Caspase6) of the same substance?
Answer: Its IC50 is 6.78 µM.

Question: What about the IC50 [1] of the same substance?
Answer: The IC50 was 5.42 µM.

Question: And the IC50 [2]?
Answer: The IC50 was 1 µM.

Question: What about the IC50 [3] of the same substance?
Answer: The IC50 was 10.7 µM.
